Key:
elastase = target: T1, elastase (Sus scrofa, UniProt P00772); assay: Elastase inhibitory activity (EnzChek Elastase Assay Kit, DQ elastin); format: biochemical
T1 construct: purchased Invitrogen
Experimental: Elastase inhibitory activity was performed by purchasing EnzChek® Elastase Assay Kit (600 Assays) reagent from Invitrogen. First, DQ elastin stock solution (1 mg/ml) was prepared by adding 1.0 ml of DDW to 1 mg DQ elastin vial. The 18 ml of DDW was added to 2 ml of 10× reaction buffer, so as to dilute reaction buffer. Then, an elastase enzyme reagent was prepared, and diluted with reaction buffer to a final concentration of 0.2 U/ml as working solution. Three samples of 50 ? each were prepared in a 96-well plate. The 50 ? of reaction buffer was added to 50 ? of DQ elastin and sample blank, and 50 ? of working solution was added to a sample, which were then left in a light-blocked state at room temperature for about one hour, and then fluorescence intensity was measured at excitation wavelength 505 nm and emission wavelength 515 nm using ELISA plate reader (VICTOR X3™, PerkinElmer, US).
Copper peptide (Comparative Example 12) and EGCg (Comparative Example 13), which is widely used as a raw material for functional cosmetics, were prepared at the same concentration and used as a positive control.
EGCg (epigallocatechin gallate) is a kind of polyphenol, which is an extract of green tea leaves, and is used as a cosmetic raw material for anti-oxidation, inflammation reduction, and wrinkle alleviation, and Copper peptide is used as a raw material for promoting wound healing, strengthening skin elasticity, and increasing subcutaneous fat layer to suppress skin aging due to excellent skin regeneration ability.

gelatinase = assay: Gelatinase inhibitory activity (EnzChek Gelatinase/Collagenase Assay Kit, DQ gelatin); format: biochemical
Experimental: Gelatinase is an enzyme which plays a major role in promoting skin aging by more finely degrading collagen fragments digested by MMP-1 with MMP-2, and wrinkle reduction activity was determined by measuring the inhibitory activity of the enzyme.
Gelatinase inhibitory activity was performed by purchasing EnzChek® Gelatinase/Collagenase Assay Kit (250-2000 Assays) reagent from Invitrogen. First, DQ gelatin stock solution (1 mg/ml) was prepared by adding 1.0 ml of DDW to 1 mg DQ gelatin vial. The 18 ml of DDW was added to 2 ml of 10× reaction buffer, so as to dilute reaction buffer. Then, a gelatinase enzyme reagent was prepared, and diluted with reaction buffer to a final concentration of 0.2 U/ml as working solution. Three samples of 50 ? each were prepared in a 96-well plate. The 30 ? of reaction buffer was added to 20 ? of DQ gelatin and sample blank, and 30 ? of working solution was added to a sample, which were then left in a light-blocked state at room temperature for about one to two hours, and then fluorescence intensity was measured at excitation wavelength 485 nm and 535 nm using ELISA plate reader (VICTOR X3™, PerkinElmer, US).

[1] = HaCaT cytotoxicity test (MTS cell viability); format: cell-based; settings: human, HaCaT cells (skin epidermal cells)
Experimental: HaCaT cells, skin epidermal cells (derived from human), were used. The medium was DMEM low (SH30021.01, HyClone™, Logan, UT, USA) medium containing 10% fetal bovine serum (FBS, Lonza, Valais, Switzerland) medium. The cell lines were cultured in an incubator adjusted to 95% humidity, 5% CO2 and 37° C., and at this time, a medium antibiotic (Penicillin streptomycin, Gibco, Calif., USA) was used to suppress contamination or proliferation of microorganisms. When the cells covered the dish about 80%, the cells were washed with phosphated-buffered saline-EDTA (PBS-EDTA), and then the cells attached to the bottom of the dish were detached by treating with 1 ml of 0.05% trypsin EDTA, and subjected to subculture. The medium was exchanged every 48 hours to culture the cells.
Cell viability was measured using MTS (CellTiter 96® AQueous One Solution Cell Proliferation Assay, Promega, USA) reagent. The cells were divided at a concentration of 1×10^4 cells/well in a 96-well plate and then stabilized for 24 hours in an incubator controlled to 95% humidity, 5% CO2 and 37° C. After that, the samples were treated for each concentration (table 1) and cultured for 24 hours in an incubator controlled to 95% humidity, 5% CO2 and 37° C. After the medium was removed, 9 ml of medium (DMEM low, free FBS) was added to 1 ml of the reagent and diluted, and then 100 ul of the diluted solution was treated per well. After the reaction at 37° C. for 60 minutes, absorbance was measured at 490 nm with microplate reader (Molecular Devices, VersaMax ELISA Microplate Reader, USA). Cell viability was represented by absorbance of a sample-treated group compared to a control group not treated with the sample.

[2] = HS68 cytotoxicity test (MTS cell viability); format: cell-based; settings: human, HS68 cells (skin fibroblasts)
Experimental: Skin fibroblast HS68 cells were used. The medium was DMEM high glucose (SH30243.01, HyClone™, Logan, UT, USA) medium containing 10% fetal bovine serum (FBS, Lonza, Valais, Switzerland) medium. The cell lines were cultured in an incubator adjusted to 95% humidity, 5% CO2 and 37° C., and at this time, a medium antibiotic (Penicillin streptomycin, Gibco, Calif., USA) was used to suppress contamination or proliferation of microorganisms.
Cell viability was measured using MTS (CellTiter 96® AQueous One Solution Cell Proliferation Assay, Promega, USA) reagent. The cells were divided at a concentration of 1×10^4 cells/well in a 96-well plate and then stabilized for 24 hours in an incubator controlled to 95% humidity, 5% CO2 and 37° C. After that, the samples were treated for each concentration and cultured for 24 hours in an incubator controlled to 95% j humidity, 5% CO2 and 37° C. After the medium was removed, 9 ml of medium (DMEM high, free FBS) was added to 1 ml of the reagent and diluted, and then 100 ul of the diluted solution was treated per well. After the reaction at 37° C. for 60 minutes, absorbance was measured at 490 nm with microplate reader (Molecular Devices, VersaMax ELISA Microplate Reader, USA). Cell viability was represented by absorbance of a sample-treated group compared to a control group not treated with the sample.

T1 sequence (P00772 27-266): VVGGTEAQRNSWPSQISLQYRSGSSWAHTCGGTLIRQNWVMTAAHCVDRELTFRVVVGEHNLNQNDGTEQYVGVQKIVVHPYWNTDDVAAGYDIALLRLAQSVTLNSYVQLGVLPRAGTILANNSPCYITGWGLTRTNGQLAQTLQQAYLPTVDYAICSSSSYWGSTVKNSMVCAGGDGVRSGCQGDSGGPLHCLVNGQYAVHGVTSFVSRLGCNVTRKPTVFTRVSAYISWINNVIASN

NC(=O)C[C@H](NC(=O)CNC(=O)[C@@H]1CCCN1)C(=O)O [PGN, Pro-Gly-Asn, reference compound]
inhibition at 20 µg/mL (elastase; 0.02 mg/ml): 1.8 ± 0.6%
inhibition at 40 µg/mL (elastase; 0.04 mg/ml): 2.8 ± 1.2%
inhibition at 60 µg/mL (elastase; 0.06 mg/ml): 6.1 ± 1.9%
inhibition at 100 µg/mL (elastase; 0.1 mg/ml): 7.5 ± 3.2%
inhibition at 1000 µg/mL (elastase; 1 mg/ml): 7.5%
IC50 (elastase; FIGS. 8 and 9): 384 µM
Gelatinase inhibitory activity (gelatinase; 0.2 mg/ml): 1.5 ± 5.5%
Gelatinase inhibitory activity (gelatinase; 0.3 mg/ml): 9.8 ± 0.8%
Gelatinase inhibitory activity (gelatinase; 0.4 mg/ml): 63.1 ± 2.1%
Gelatinase inhibitory activity (gelatinase; 0.5 mg/ml): 80.5 ± 1.2%
viability at 24 h, 1 µg/mL ([1]; 1 μg/ml): 118 ± 3.1%
viability at 24 h, 10 µg/mL ([1]; 10 μg/ml): 129 ± 2.8%
viability at 24 h, 50 µg/mL ([1]; 50 μg/ml): 125 ± 7.6%
viability at 24 h, 100 µg/mL ([1]; 100 μg/ml): 128 ± 4.1%
viability at 24 h, 1 µg/mL ([2]; HS68, 1 μg/ml): 104 ± 3.9%
viability at 24 h, 10 µg/mL ([2]; HS68, 10 μg/ml): 117 ± 11.5%
viability at 24 h, 50 µg/mL ([2]; HS68, 50 μg/ml): 128 ± 2.2%
viability at 24 h, 100 µg/mL ([2]; HS68, 100 μg/ml): 130.1 ± 0.1%

From patent publication US20230312643A1, “PEPTIDE DERIVATIVE WITH COLLAGENASE INHIBITORY ACTIVITY, AND USE THEREOF” (SUNMARINE BIOTECH, priority 2020, published 2023)
